Test results published in patent US20220185811A1, “FGFR4 KINASE INHIBITOR AND PREPARATION METHOD THEREFOR AND USE THEREOF” (SHOUYAO HOLDINGS (BEIJING) CO., LTD., priority 2019, published 2022).
Where two headings read alike, the source gives them in different places.

Experiments:
FGFR-4 kinase = FGFR-4 kinase (Homo sapiens, UniProt P22455); assay: FGFR-4 kinase activity, homogeneous time-resolved fluorescence (HTRF) method; type: biochemical; settings: ATP 25 μM, FGFR-4 kinase 1 nM, read-out: FGFR4 IC50
Chain of FGFR-4 kinase (P22455 22-802): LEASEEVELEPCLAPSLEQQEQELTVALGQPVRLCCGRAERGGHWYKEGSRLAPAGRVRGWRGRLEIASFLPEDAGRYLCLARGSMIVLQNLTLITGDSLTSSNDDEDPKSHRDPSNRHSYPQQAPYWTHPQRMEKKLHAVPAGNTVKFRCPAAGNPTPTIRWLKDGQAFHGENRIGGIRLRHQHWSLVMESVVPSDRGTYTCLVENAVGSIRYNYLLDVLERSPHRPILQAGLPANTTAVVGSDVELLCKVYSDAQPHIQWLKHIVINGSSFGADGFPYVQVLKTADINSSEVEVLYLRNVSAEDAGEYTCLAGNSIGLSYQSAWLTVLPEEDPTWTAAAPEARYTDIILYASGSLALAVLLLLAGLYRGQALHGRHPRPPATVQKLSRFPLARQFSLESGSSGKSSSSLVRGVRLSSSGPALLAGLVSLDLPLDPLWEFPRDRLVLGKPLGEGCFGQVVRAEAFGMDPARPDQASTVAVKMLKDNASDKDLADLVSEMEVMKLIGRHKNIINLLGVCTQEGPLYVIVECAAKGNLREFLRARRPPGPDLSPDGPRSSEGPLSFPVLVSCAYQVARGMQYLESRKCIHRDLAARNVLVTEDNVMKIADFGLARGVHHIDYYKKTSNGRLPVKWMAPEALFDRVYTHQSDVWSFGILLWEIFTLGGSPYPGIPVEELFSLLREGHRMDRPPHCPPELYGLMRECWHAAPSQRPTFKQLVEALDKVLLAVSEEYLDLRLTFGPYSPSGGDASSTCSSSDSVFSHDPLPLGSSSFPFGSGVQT
Experimental: 1. In vitro determination of the protein activity of compounds: The FGFR-4 kinase activity detection platform was established by the homogeneous time-resolved fluorescence (HTRF) method, and the activity of the compound was determined. 1000 μM compounds were subjected to 3-fold gradient dilution in 100% DMSO 11 times (12 concentrations in total), 4 μL diluent from each concentration was added to 96 μL of reaction buffer (50 mM HEPES, pH 7.4, 5 mM MnCl2, 0.1 mM NaVO3, 0.001% Tween-20, 0.01% BAS, 1 mM DTT) and mixed well, as a 4* compound (final concentration of 0.017 nM-1000 nM) for later use. 2 * FGFR-4 kinase (final concentration of 1 nM) was formulated using reaction buffer and 4*substrate (ATP+TK peptide) (TK peptide, HTRF® KinEASETM-TK, purchased from Cisbio, TK peptide, final concentration of 1 μM, ATP final concentration of 25 μ M) was formulated using reaction buffer. 2.5 μL of 4*compound and then 5 μL of 2 * FGFR-4 kinase were added to a 384-well plate (OptiPlate-384, purchased from PerkinElmer), the mixture was mixed by centrifugation, and 2.5 μL of 4 * substrate mixture was added to start the reaction (total reaction volume of 10 µL). The 384-well plate was placed in an incubator 23° C. and stirred for 60 min before the reaction was stopped by the addition of 5 μL of Eu^3+cryptate-labeled anti-phosphotyrosine antibody (TRF® KinEASE™-TK, purchased from Cisbio) and 5 μL of Streptavidin-XL-665 (HTRF® KinEASE™-TK, purchased from Cisbio). After incubation in the incubator for 1 h, fluorescence values (excitation at 320 nm, detecting emitted light at 665 nm and 620 nm, and a ratio of the two as enzyme activity) were read on Envision (purchased from PerkinElmer). The enzyme activity of each compound was measured at 12 concentrations, and the ICso value of the compound was calculated using GraphPad Prism 5.0 software.
The FGFR-4 kinase activity detection platform was established by homogeneous time-resolved fluorescence (HTRF) method, and the activity of compound was determined. 1000 μM compounds were subjected to 3-fold gradient dilution in 100% DMSO 11 times (12 concentrations in total), 4 μL of diluent from each concentration was added to 96 μL of reaction buffer (50 mM HEPES, pH 7.4, 5 mM MnCl2, 0.1 mM NaVO3, 0.001% Tween-20, 0.01% BAS, 1 mM DTT) and mixed well, as a 4* compound (final concentration of 0.017 nM-1000 nM) for later use. 2 * FGFR-4 kinase (final concentration of 1 nM) was formulated using reaction buffer and 4*substrate (ATP+TK peptide)(TK peptide, HTRF® KinEASE™-TK, purchased from Cisbio, TK peptide, final concentration of 1 μM, ATP final concentration of 25 μM) was formulated using reaction buffer. 2.5 μL of 4 * compound and then 5 μL of 2 * FGFR-4 kinase were added to a 384-well plate (OptiPlate-384, purchased from PerkinElmer), the mixture was mixed by centrifugation, and 2.5 μL of 4 * substrate mixture was added to start the reaction (total reaction volume of 10 μL). The 384-well plate was placed in an incubator 23° C. and stirred for 60 min before the reaction was stopped by the addition of 5 μL of Eu^3+cryptate-labled anti-phosphotyrosine antibody (TRF® KinEASE™-TK, purchased from Cisbio) and 5 μL of Streptavidin-XL-665 (HTRF® KinEASE™-TK, purchased from Cisbio). After incubation in the incubator for 1 h, fluorescence values (excitation at 320 nm, detecting emitted light at 665 nm and 620 nm, and a ratio of the two as enzyme activity) were read on Envision (purchased from PerkinElmer). The enzyme activity of each compopund was measured at 12 concentrations, and the ICso value of the compound was calculated using GraphPad prism 5.0 software.

[1] = test system: Human hepatoma cells Hep3b; assay: Cell proliferation inhibition, Cell Titer-Glo; type: cell-based; settings: Hep3B, 72 h
Experimental: 2. Determination of cell proliferation activity of compounds:
Cell Titer-Glo ® detection reagent from Promega was used to establish the suspension cell proliferation inhibition screening method. Human hepatoma cells Hep3b (Xiehe Cell Research Center) were cultured in 25 cm^2 or 75 cm^2 plastic tissue culture flasks (Corning®) filled with MEM (Gibco®) medium supplemented with 10% fetal bovine serum (Hyclone®) under 37° C., 95% air and 5% CO2, and subcultured 2-3 times a week.
(§1) Hep3b cells were seeded in a 96-well cell culture plate (Corning®) at a density of 3×10^3 cells/well, […], and cultured under 37° C., 95% air, and 5% CO2. After 24 h the test compound was added: 10 mM compounds (dissolved in DMSO) were subjected to 3-fold gradient dilution in DMSO , […] of diluent from each concentration was added to […] of serum-free medium, and finally […] of compound diluted in the medium was added to the plate seeded with cells. The final concentration of DMSO in the cell culture medium was 0.1% and the final concentration of the test compound was 0.3 nM-[…]. The above cells were incubated for 3 days under 37° C.
After 3 days, the cell viability assay was performed by the Cell Titer-Glo (Promega) kit, and finally, the inhibitory concentration 50% of the compound on cell proliferation, i.e. the IC 50 value, was calculated by the GraphPad Prism 5.0 program.
as §1, with “DMSO,” for “DMSO ,”, “finally,” for “finally”, “of” for “of the”
After 3 days, the cell viability assay was performed by the Cell Titer-Glo (Promega) kit, and finally the inhibitory concentration 50% of the compound on cell proliferation, i.e. the IC 50 value, was calculated by the GraphPad Prism 5.0 program.

[2] = Pharmacokinetics in male SD rats, single intragastric administration; type: in vivo; settings: 5 mg/kg suspension, plasma; for AUC(0-inf) / Cmax / Tmax / half-life: rat, po
Experimental: (§2) Male SD rats (Beijing Vital River Laboratory Animal Technology Co., Ltd.) were divided into groups of 3 rats each. The rats were subjected to 5 mg/kg suspension of the test sample by single intragastric administration, respectively. Animals were fasted overnight prior to the experiment from 10 h before dosing to 4 h after dosing. Blood was collected 0.25, 0.5, 1, 2, 4, 6, 8, and 24 h after administration. After isoflurane anesthesia using a small animal anesthesia machine, 0.3 mL of whole blood samples was collected from the fundus venous plexus, placed in a heparin anticoagulant tube, and were centrifuged at 4° C., 4000 rpm for 5 min, plasma was transferred to the centrifuge tube, and stored at −80° C. until analysis. Samples in the plasma were extracted using protein precipitation and the extracts were analyzed by LC/MS/MS.
as §2, with “taken through” for “collected from”, “-80°” for “−80°”

FGFR1-4 = settings: background art; equally high-efficiency inhibition of FGFR1-4; cited from earlier work
[3] = first PK table, read-out: T1/2 (converted)
[4] = second PK table, read-out: T½ (converted)

IC50 (FGFR-4 kinase; Table 2)	IC50 ([1]; Table 2, 3 days incubation)	AUC(0-inf) ([2]; second PK table)	Cmax ([2]; second PK table)	Tmax ([2]; second PK table)	half-life [2, 4]	Compound	other results
2.21 nM	66.1 nM					C=CC(=O)N[C@H]1CCOC[C@H]1Nc1ncc2cc(-c3c(Cl)c(OC)cc(OC)c3Cl)ccc2n1 [Blu-554, reference compound]	IC50 (FGFR-4 kinase; Table 1): 7.49 nM; IC50 ([1]; Table 1, 3 days incubation): 162 nM; T½ ([2]; second PK table): 1.64 h; AUC(0-inf) ([2]; first PK table): 1680 ng·h/mL; Cmax ([2]; first PK table): 362 ng/mL; Tmax ([2]; first PK table): 2.67 h; half-life [2, 3]: 1.64 h
						C=CC(=O)Nc1cc(-c2cc3c(cn2)cc(-c2c(Cl)c(OC)cc(OC)c2Cl)c2nccn23)c(OC)cc1N1C2CCC1COC2 [Example 6, N-(2-(3-oxa-8-azabicyclo[3 .2.1]octan-8-yl)-5-(4-(2,6-dichloro-3,5-dimethoxyphenyl)imidazo[1,2-a][1,6]naphthyridin-8-yl)-4-methoxyphenyl)acrylamide]	IC50 ([1]; Table 1, 3 days incubation): 58.3 nM; AUC(0-inf) ([2]; first PK table): 2560 ng·h/mL; Cmax ([2]; first PK table): 236 ng/mL; Tmax ([2]; first PK table): 6 h; half-life [2, 3]: 11.5 h
1.1 nM	63.2 nM	3940 ng·h/mL	505 ng/mL	2.67 h	3.97 h	C=CC(=O)Nc1cc(-c2cc3c(cn2)cc(-c2c(Cl)c(OC)cc(OC)c2Cl)c2nccn23)c(OC)cc1N1CCN(C2CC2)CC1 [Example 59]	
1.7 nM	121 nM	3050 ng·h/mL	561 ng/mL	1.17 h	2.6 h	C=CC(=O)Nc1cc(-c2cc3c(cn2)cc(-c2c(Cl)c(OC)cc(OC)c2Cl)c2nccn23)c(OC)cc1N1C[C@@H]2C[C@H]1CO2 [Example 61, N-(2-((1S,4S)-2-oxa-5-azabicyclo[2.2.1]heptan-5-yl)-5-(4-(2,6-dichloro-3,5-dimethoxyphenyl)imidazo[1,2-a][1,6]naphthyridin-8-yl)-4-methoxyphenyl)acrylamide]	
						COc1cc(OC)cc(N(CCNC(C)C)c2ccc3ncc(-c4cnn(C)c4)nc3c2)c1 [JNJ-42756493]	IC50 on FGFR1-4 (FGFR1-4): single-digit nanomolar level
						C[C@@H](Oc1ccc2[nH]nc(/C=C/c3cnn(CCO)c3)c2c1)c1c(Cl)cncc1Cl [LY2874455]	IC50 on FGFR1-4 (FGFR1-4): single-digit nanomolar level

Compound	IC50 (FGFR-4 kinase; Table 2)	IC50 ([1]; Table 2, 3 days incubation)	AUC(0-inf) ([2]; second PK table)	Cmax ([2]; second PK table)	Tmax ([2]; second PK table)	half-life [2, 4]	other results
C=CC(=O)Nc1cc(-c2cc3c(cn2)cc(-c2c(Cl)c(OC)cc(OC)c2Cl)c2nccn23)c(OC)cc1N1CCC2(CCOC2)C1 (stereo not shown) [Example 62, N-(5-(4-(2,6-dichloro-3,5-dimethoxyphenyl)imidazo[1,2-a][1,6]naphthyridin-8-yl)-4-methoxy-2-(2-oxa-7-azaspiro[4, 4]nonan-7-yl)phenyl)acrylamide]	2.4 nM	43.8 nM	1120 ng·h/mL	175 ng/mL	5.33 h	4.93 h	
